Experimental data reported in patent publication US20160030407A1, “Method of Treating Inflammatory Lung Disease” (priority 2010, published 2016).
≈ marks a conversion by molar mass, not a printed value. Where “and” joins values, the source holds several entries; their conditions need not be identical. Identical values can stand only once.

What was measured:
NFκB = NFκB luciferase assay (inhibition of TNFα-induced NFκB activity); assay type: cell-based, Human; details: for Effect on TNFα-induced NFκB-mediated transcription of luciferase: HEK293 with NFκB luciferase reporter challenged with TNFα
Procedure: The smokeless tobacco used in these experiments was plain long-leaf Copenhagen tobacco purchased from a local vendor. Crude extract was extracted with methanol and water and clarified by centrifugation and filtration. The alkaloid extract was prepared from sodium hydroxide and methanol extraction, organic phase separation and purification. All treatment samples were prepared as a function of weight (μg/ml), and all samples were diluted in DMSO.
Human […] kidney cells (HEK293) transfected with an NFκB luciferase reporter were challenged with TNFα for three hours, then samples were applied to the challenged cells.
The effect of S-(−)-anatabine on TNFα-induced NFκB activity in vitro was determined as described in Example 1.

[1] = Plasma toxicokinetics after single i.v. bolus; assay type: in vivo, Sprague-Dawley rats; details: for Concentration in rat plasma: Anatabine 0.1 mg/kg dose group, individual rats; for Avg. Conc. (Combined Male and Female) / Avg. Conc. (Male or Female): Rat Plasma; for half-life: Sprague-Dawley, iv
Procedure: Six rats (3 males and 3 females) were dosed per dose group. […] Plasma and brain homogenates were stored at −80° C. until analysis.
An additional 48 rats (24 males and 24 females) received a single intravenous dose via the tail vein at the same doses as mentioned above. At 30 and 360 minutes post administration, 6 rats (3 males and 3 females) per dose group, per time point were euthanized, bled via cardiac puncture, and perfused, and brains were collected. The brains were homogenized. Blood was spun, and plasma was collected. Plasma and brain homogenate were stored at −80° C.
Four aliquots of each dose level formulation were collected and stored at −80° C. The test compound, corresponding dose level, number of animals, and sample collection times for Phase I of the study are shown in Table 3. The test compound, corresponding dose level, number of animals, and sample collection times for Phase II of the study are shown in Table 4. The physical signs of each animal were monitored following administration of the test compound.
The animals were weighed prior to dosing and received a single i.v. dose of either test compound at a volume of 5 mL/kg. Blood was collected via the venus plexus (retro-orbital) into tubes containing (K2) EDTA. No more than 0.5 mL was collected per time point. […] The brain was removed, weighed, homogenized in sterile 0.9% saline at a volume equal to its weight, and stored at −80° C.
Plasma was separated according to the instructions for MICROTAINER® brand collection tubes (3 minutes, 2000×g). Plasma was decanted into microfuge tubes and stored at −80° C. Remaining test compound was stored at −80° C.
The amount of the test agent in the supernatant was determined by liquid chromatography tandem mass spectrometry (LC/MS/MS).
Analysis. Samples were analyzed by LC/MS/MS using an Agilent 6410 mass spectrometer coupled with an Agilent 1200 high pressure liquid chromatography (HPLC) and a CTC PAL chilled autosampler, all controlled by MassHunter software (Agilent). After separation on a hydrophilic interaction liquid chromatography (HILIC) HPLC column (Sepax) using an acetonitrile-ammonium acetate/acetic acid gradient system, peaks were analyzed by mass spectrometry (MS) using ESI ionization in multiple reaction monitoring (MRM) mode. MassHunter software was used to calculate the concentration of the test compounds in samples from the peak area using the appropriate calibration curves.

[2] = Single i.v. dose toxicity: urinalysis; assay type: in vivo, Sprague-Dawley rats; details: for Urinalysis KETONES / Urinalysis BILIRUBIN / Urinalysis BLOOD / Urinalysis PROTEIN / Urinalysis pH / Urinalysis CLARITY / Urinalysis COLOR / Urinalysis GLUCOSE / Urinalysis UROBILINOGEN / Urinalysis VOLUME: individual animals M and F; for urinalysis parameters vs controls: rat, day 15 after single i.v. dose
Text: On day 15, urine was collected on all surviving animals for urinalysis. The animals were euthanized and bled via cardiac puncture. Blood was collected for hematology, clinical chemistry, and coagulation analysis. Tissues were collected, weighed, and stored in 10% neutral-buffered formalin for possible future analysis.

[3] = rat plasma, single i.v. 0.1 mg/kg, female
[4] = rat plasma, single i.v. 0.75 mg/kg, male
[5] = rat plasma, single i.v. 0.1 mg/kg, M + F
[6] = rat plasma, single i.v. 0.1 mg/kg, male
[7] = rat plasma, single i.v. 0.75 mg/kg, M + F
[8] = rat plasma, single i.v. 0.75 mg/kg, female
[9] = rat plasma, single i.v. 1.0 mg/kg, M + F
[10] = rat plasma, single i.v. 1.0 mg/kg, female
[11] = rat plasma, single i.v. 1.0 mg/kg, male
[12] = Anatabine dose 0.1 mg/kg, 0.1 mg/kg, female rats
[13] = Anatabine dose 0.1 mg/kg, 0.1 mg/kg, male rats
[14] = Anatabine dose 0.1 mg/kg, female rats
[15] = Anatabine dose 0.1 mg/kg, male rats
[16] = Anatabine dose 0.75 mg/kg, 0.75 mg/kg, female rats
[17] = Anatabine dose 0.75 mg/kg, 0.75 mg/kg, male rats
[18] = Anatabine dose 0.75 mg/kg, female rats
[19] = Anatabine dose 0.75 mg/kg, male rats

SMILES: C1=CCC(c2cccnc2)NC1 (racemic) [Anatabine, 1,2,3,6-tetrahydro-[2,3′]bipyridinyl]
- Effect on TNFα-induced NFκB-mediated transcription of luciferase (NFκB): reduce this transcription to control levels
- IC50 (NFκB; Homo sapiens, 20 ng/ml TNFα, HEK293 NFκB luciferase): ~600 µg/mL (≈ 3.74 mM)
- Concentration in rat plasma ([1]; rat plasma, time point 4 hr): <LLQ
- Concentration in rat plasma ([1]; rat plasma, time point 6 hr): <LLQ
- Concentration in rat plasma ([1]; rat plasma, time point 8 hr): <LLQ
- Concentration in rat plasma ([1]; rat plasma, time point 24 hr): <LLQ
- Avg. Conc. (Combined Male and Female) ([1]; Anatabine 0.1 mg/kg, 8 hr): <LLQ
- Avg. Conc. (Combined Male and Female) ([1]; Anatabine 0.1 mg/kg, 24 hr): <LLQ
- Avg. Conc. (Male or Female) ([1]; Anatabine 0.1 mg/kg, female, 8 hr): <LLQ
- Avg. Conc. (Male or Female) ([1]; Anatabine 0.1 mg/kg, female, 24 hr): <LLQ
- Avg. Conc. (Male or Female) ([1]; Anatabine 0.1 mg/kg, male, 6 hr (1st line)): <LLQ
- Avg. Conc. (Male or Female) ([1]; Anatabine 0.1 mg/kg, male, 8 hr): <LLQ
- Avg. Conc. (Male or Female) ([1]; Anatabine 0.1 mg/kg, male, 24 hr): <LLQ
- Avg. Conc. (Combined Male and Female) ([1]; Anatabine 0.75 mg/kg, 24 hr): <LLQ
- Avg. Conc. (Male or Female) ([1]; Anatabine 0.75 mg/kg, female, 24 hr): <LLQ
- Avg. Conc. (Male or Female) ([1]; Anatabine 0.75 mg/kg, male, 24 hr): <LLQ
- Avg. Conc. (Combined Male and Female) ([1]; Anatabine 1.0 mg/kg, 24 hr): <LLQ
- Avg. Conc. (Male or Female) ([1]; Anatabine 1.0 mg/kg, female, 24 hr): <LLQ
- Avg. Conc. (Male or Female) ([1]; Anatabine 1.0 mg/kg, male, 24 hr): <LLQ
- half-life [1, 3]: 1.64 ± 0.59 h
- half-life [1, 4]: 1.64 ± 0.12 h
- half-life ([1]; both sexes, rat plasma, single i.v. 0.75 mg/kg, M + F): 1.68 ± 0.09 h
- half-life ([1]; both sexes, rat plasma, single i.v. 1.0 mg/kg, M + F): 1.64 ± 0.25 h
- apparent volume of distribution (VD) compared with nicotine ([1]; rat plasma, single i.v.): significantly greater than that of nicotine
- AUC0→∞ [1, 5]: 35.0 ± 11.6 ng·h/mL
- VD [1, 5]: 6.08 ± 0.45 L/kg
- t1/2 [1, 5]: 1.44 ± 0.48 h
- AUC0→∞ [1, 3]: 37.9 ± 15.9 ng·h/mL
- VD [1, 3]: 6.52 ± 0.66 L/kg
- AUC0→∞ [1, 6]: 32.0 ± 7.7 ng·h/mL
- VD [1, 6]: 5.29 ± 0.49 L/kg
- t1/2 [1, 6]: 1.25 ± 0.32 h
- AUC0→∞ [1, 7]: 504.4 ± 63.5 ng·h/mL
- VD [1, 7]: 3.33 ± 0.13 L/kg
- AUC0→∞ [1, 8]: 544.5 ± 62.7 ng·h/mL
- VD [1, 8]: 3.19 ± 0.15 L/kg
- t1/2 [1, 8]: 1.73 ± 0.03 h
- AUC0→∞ [1, 4]: 464.4 ± 36.2 ng·h/mL
- VD [1, 4]: 3.48 ± 0.18 L/kg
- AUC0→∞ [1, 9]: 710.07 ± 88.4 ng·h/mL
- VD [1, 9]: 3.08 ± 0.16 L/kg
- AUC0→∞ [1, 10]: 788.9 ng·h/mL
- VD [1, 10]: 3.16 ± 0.15 L/kg
- t1/2 ([1]; rat plasma, single i.v. 1.0 mg/kg, female, 1 mg/kg): 1.84 h
- AUC0→∞ [1, 11]: 631.3 ng·h/mL
- VD [1, 11]: 3.01 ± 0.12 L/kg
- t1/2 ([1]; rat plasma, single i.v. 1.0 mg/kg, male, 1 mg/kg): 1.44 h
- plasma concentration between approximately 6 and 8 hours ([1]; rat, single i.v., nicotine 0.4 mg/kg, anatabine 0.1 mg/kg): below the limits of quantitation
- Urinalysis KETONES ([2]; Anatabine dose 0.1 mg/kg, 0.1 mg/kg): NEGATIVE
- Urinalysis BILIRUBIN [2, 12]: NEGATIVE
- Urinalysis BLOOD [2, 12]: NEG- (3×) and TRACE
- Urinalysis PROTEIN [2, 12]: NEG-
- Urinalysis pH [2, 12]: 7.5 (2×) and 7 and 8
- Urinalysis BILIRUBIN [2, 13]: NEGATIVE
- Urinalysis BLOOD [2, 13]: TRACE (2×) and NEG-
- Urinalysis PROTEIN [2, 13]: TRACE (3×) and NEG-
- Urinalysis pH [2, 13]: 8.5 and 7.5 (2×) and 7
- Urinalysis CLARITY [2, 14]: HAZY
- Urinalysis COLOR [2, 14]: YELLOW
- Urinalysis GLUCOSE [2, 14]: NEGATIVE
- Urinalysis UROBILINOGEN [2, 14]: NORMAL
- Urinalysis VOLUME [2, 14]: <0.5 mL
- Urinalysis CLARITY [2, 15]: HAZY
- Urinalysis COLOR [2, 15]: YELLOW
- Urinalysis GLUCOSE [2, 15]: NEGATIVE
- Urinalysis UROBILINOGEN [2, 15]: NORMAL
- Urinalysis VOLUME [2, 15]: <0.5 mL
- Urinalysis CLARITY ([2]; Anatabine dose 0.75 mg/kg): HAZY
- Urinalysis COLOR ([2]; Anatabine dose 0.75 mg/kg): YELLOW
- Urinalysis VOLUME ([2]; Anatabine dose 0.75 mg/kg): <0.5 mL
- Urinalysis PROTEIN ([2]; Anatabine dose 0.75 mg/kg, 0.75 mg/kg): TRACE
- Urinalysis BILIRUBIN [2, 16]: NEGATIVE
- Urinalysis BLOOD [2, 16]: TRACE and NEG-
- Urinalysis KETONES [2, 16]: NEGATIVE
- Urinalysis pH [2, 16]: 7.5 and 6 and 8 (2×)
- Urinalysis BILIRUBIN [2, 17]: NEGATIVE
- Urinalysis BLOOD [2, 17]: TRACE and NEG- (3×)
- Urinalysis KETONES [2, 17]: NEGATIVE
- Urinalysis pH [2, 17]: 7
- Urinalysis GLUCOSE [2, 18]: NEGATIVE
- Urinalysis UROBILINOGEN [2, 18]: NORMAL
- Urinalysis GLUCOSE [2, 19]: NEGATIVE
- Urinalysis UROBILINOGEN [2, 19]: NORMAL
- urinalysis parameters vs controls [2]: no notable differences in any of the urinalysis parameters

SMILES: CN1CCCC1c1cccnc1.O=C(O)C(O)C(O)C(=O)O (single isomer, unassigned; (-)) [Nicotine, (−) Nicotine hydrogen tartrate, reference compound]
- Effect on TNFα-induced NFκB-mediated transcription of luciferase (NFκB): reduce TNFα-induced NFκB-mediated transcription
- urinalysis parameters vs controls [2]: no notable differences in any of the urinalysis parameters
